Assay results as given in ChEMBL document CHEMBL1201862, “PubChem BioAssay data set” (2004).
Activity calls are given as the source filed them.

How the values were obtained:
[1] = biological target: Voltage-dependent T-type calcium channel subunit alpha-1H (Homo sapiens, UniProt O95180); experiment: human CACNA1H calcium influx blockade – cell-based, synthetic library set 1, calcium flux (AID 493022); assay type: functional
Cannabinoid receptor 1 [2] = biological target: T1, Cannabinoid receptor 1 (Homo sapiens, UniProt P21554); experiment: SAR analysis of agonists of the Cannabinoid Receptor 1 using an Image-Based Assay - Set 3. [Related pubchem assays (depositor defined):AID1961, AID1965]; assay type: functional
Cannabinoid receptor 2 [3] = biological target: T2, Cannabinoid receptor 2 (Homo sapiens, UniProt P34972); experiment: SAR analysis of antagonists of the Cannabinoid Receptor 2 using an Image-Based Assay - Set 2. [Related pubchem assays (depositor defined):AID1961, AID1965]; assay type: functional
[4] = biological target: T3, G-protein coupled receptor 35 (Homo sapiens, UniProt Q9HC97); experiment: SAR analysis of Antagonists of the GPR35 Receptor using an Image-Based Assay - Set 4. [Related pubchem assays (depositor defined):[…]]; assay type: functional
[5] = biological target: T3, G-protein coupled receptor 35; experiment: SAR analysis of Agonists of the GPR35 Receptor using an Image-Based Assay - Set 3. [Related pubchem assays (depositor defined):AID1961, AID1965]; assay type: functional
Cannabinoid receptor 2 [6] = biological target: T2, Cannabinoid receptor 2; experiment: SAR analysis of agonists of the Cannabinoid Receptor 2 using an Image-Based Assay - Set 2. [Related pubchem assays (depositor defined):AID1961, AID1965]; assay type: functional
[7] = biological target: G-protein coupled receptor 55 (Homo sapiens, UniProt Q9Y2T6); experiment: SAR analysis of selective Agonists of GPR55 using an Image-Based Assay - Set 2. [Related pubchem assays (depositor defined):AID1961, AID1965]; assay type: functional
Cannabinoid receptor 1 [8] = biological target: T1, Cannabinoid receptor 1; experiment: SAR analysis of antagonists of the Cannabinoid Receptor 1 using an Image-Based Assay - Set 3. [Related pubchem assays (depositor defined):AID1961, AID1965]; assay type: functional
Coagulation factor XII = biological target: T4, Coagulation factor XII (Homo sapiens, UniProt P00748); experiment: Factor XIIa Dose Response Confirmation from Single Well HTS. [Related pubchem assays (depositor defined):AID701]; assay type: functional
T4 sequence (P00748 whole entry): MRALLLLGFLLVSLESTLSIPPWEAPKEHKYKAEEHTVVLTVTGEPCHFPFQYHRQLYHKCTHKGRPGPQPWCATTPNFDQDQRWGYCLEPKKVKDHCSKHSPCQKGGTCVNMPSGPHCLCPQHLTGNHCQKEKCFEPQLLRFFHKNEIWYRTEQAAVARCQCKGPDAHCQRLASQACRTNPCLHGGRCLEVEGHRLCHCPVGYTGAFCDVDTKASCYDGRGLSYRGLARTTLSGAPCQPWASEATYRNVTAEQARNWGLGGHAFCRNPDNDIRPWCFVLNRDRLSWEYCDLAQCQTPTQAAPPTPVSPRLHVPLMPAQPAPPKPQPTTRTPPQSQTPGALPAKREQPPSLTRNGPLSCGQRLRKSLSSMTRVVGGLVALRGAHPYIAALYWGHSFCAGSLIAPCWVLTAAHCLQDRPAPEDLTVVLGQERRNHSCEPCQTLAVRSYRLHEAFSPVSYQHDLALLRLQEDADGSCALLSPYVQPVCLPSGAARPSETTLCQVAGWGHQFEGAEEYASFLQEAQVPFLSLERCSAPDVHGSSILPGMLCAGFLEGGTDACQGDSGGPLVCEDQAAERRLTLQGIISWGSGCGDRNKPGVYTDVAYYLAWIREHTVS

Caspase-3 = biological target: T5, Caspase-3 (Homo sapiens, UniProt P42574); assay type: functional;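 also: Dose-response selectivity test against caspase-3 for candidate inhibitors of sentrin-specific proteases (SENPs)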
T5 sequence (P42574 whole entry): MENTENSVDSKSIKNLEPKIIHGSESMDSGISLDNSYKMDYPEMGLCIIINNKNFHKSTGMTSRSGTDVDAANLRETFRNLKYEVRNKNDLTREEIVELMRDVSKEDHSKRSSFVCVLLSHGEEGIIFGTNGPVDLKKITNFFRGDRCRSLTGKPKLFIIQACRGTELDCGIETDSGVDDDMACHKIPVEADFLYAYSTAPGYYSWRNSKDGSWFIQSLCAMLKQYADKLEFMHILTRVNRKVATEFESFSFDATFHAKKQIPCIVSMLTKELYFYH

[9] = Vero E6 cell cytotoxicity, dose response, cytotoxicity control for non-replicating M. tuberculosis project, secondary assay (AID 492998); assay type: functional, VeroE6; conditions: Vero C1008
INS1 = experiment: INS-1E survival protection against cytokine death – cell-based, luminescence, retest, dose response (AID 449756); assay type: functional; conditions: Rattus norvegicus;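 also: cell death triggered by IL-1 beta plus TNF-alpha plus IFN-gamma mixture; protective hits raise ATP signal compared with cytokine alone wells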
[10] = biological target: T6, Sentrin-specific protease 7 (Homo sapiens, UniProt Q9BQF6); assay type: functional;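 also: Luminescence-based dose-response confirmation of ultra-high-throughput screening hits, measuring inhibition of SENP7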
T6 sequence (Q9BQF6 whole entry): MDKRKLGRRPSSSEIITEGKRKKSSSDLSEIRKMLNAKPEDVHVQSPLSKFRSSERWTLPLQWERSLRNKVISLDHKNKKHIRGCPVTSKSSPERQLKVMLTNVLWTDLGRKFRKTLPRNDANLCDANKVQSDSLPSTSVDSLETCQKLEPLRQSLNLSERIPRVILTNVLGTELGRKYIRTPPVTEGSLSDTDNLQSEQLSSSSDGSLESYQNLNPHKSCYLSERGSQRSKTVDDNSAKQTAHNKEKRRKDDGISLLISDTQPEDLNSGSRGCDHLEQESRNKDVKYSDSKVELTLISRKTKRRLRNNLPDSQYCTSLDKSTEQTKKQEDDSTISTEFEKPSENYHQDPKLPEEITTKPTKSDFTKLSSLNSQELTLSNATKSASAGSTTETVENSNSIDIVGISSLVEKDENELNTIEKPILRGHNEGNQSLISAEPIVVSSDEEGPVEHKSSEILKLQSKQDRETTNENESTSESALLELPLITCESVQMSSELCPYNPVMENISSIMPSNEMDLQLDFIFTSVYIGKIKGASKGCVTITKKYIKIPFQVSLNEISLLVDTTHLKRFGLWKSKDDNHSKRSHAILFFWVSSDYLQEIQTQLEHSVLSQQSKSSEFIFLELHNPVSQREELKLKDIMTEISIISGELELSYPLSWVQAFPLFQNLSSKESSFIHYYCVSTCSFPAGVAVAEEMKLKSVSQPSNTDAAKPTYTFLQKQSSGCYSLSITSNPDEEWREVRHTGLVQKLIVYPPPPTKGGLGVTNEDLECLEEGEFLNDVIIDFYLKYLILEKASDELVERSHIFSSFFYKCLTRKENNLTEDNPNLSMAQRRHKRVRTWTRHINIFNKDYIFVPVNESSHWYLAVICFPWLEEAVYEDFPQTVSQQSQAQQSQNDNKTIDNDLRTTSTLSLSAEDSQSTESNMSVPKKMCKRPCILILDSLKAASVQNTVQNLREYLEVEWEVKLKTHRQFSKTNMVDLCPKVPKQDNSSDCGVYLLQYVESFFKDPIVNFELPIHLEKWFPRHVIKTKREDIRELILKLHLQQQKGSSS

[11] = biological target: T7, Sentrin-specific protease 6 (Homo sapiens, UniProt Q9GZR1); assay type: functional;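 also: Luminescence-based dose-response confirmatory assay of SENP6 inhibition, following up an ultra-high-throughput screen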
T7 sequence (Q9GZR1 whole entry): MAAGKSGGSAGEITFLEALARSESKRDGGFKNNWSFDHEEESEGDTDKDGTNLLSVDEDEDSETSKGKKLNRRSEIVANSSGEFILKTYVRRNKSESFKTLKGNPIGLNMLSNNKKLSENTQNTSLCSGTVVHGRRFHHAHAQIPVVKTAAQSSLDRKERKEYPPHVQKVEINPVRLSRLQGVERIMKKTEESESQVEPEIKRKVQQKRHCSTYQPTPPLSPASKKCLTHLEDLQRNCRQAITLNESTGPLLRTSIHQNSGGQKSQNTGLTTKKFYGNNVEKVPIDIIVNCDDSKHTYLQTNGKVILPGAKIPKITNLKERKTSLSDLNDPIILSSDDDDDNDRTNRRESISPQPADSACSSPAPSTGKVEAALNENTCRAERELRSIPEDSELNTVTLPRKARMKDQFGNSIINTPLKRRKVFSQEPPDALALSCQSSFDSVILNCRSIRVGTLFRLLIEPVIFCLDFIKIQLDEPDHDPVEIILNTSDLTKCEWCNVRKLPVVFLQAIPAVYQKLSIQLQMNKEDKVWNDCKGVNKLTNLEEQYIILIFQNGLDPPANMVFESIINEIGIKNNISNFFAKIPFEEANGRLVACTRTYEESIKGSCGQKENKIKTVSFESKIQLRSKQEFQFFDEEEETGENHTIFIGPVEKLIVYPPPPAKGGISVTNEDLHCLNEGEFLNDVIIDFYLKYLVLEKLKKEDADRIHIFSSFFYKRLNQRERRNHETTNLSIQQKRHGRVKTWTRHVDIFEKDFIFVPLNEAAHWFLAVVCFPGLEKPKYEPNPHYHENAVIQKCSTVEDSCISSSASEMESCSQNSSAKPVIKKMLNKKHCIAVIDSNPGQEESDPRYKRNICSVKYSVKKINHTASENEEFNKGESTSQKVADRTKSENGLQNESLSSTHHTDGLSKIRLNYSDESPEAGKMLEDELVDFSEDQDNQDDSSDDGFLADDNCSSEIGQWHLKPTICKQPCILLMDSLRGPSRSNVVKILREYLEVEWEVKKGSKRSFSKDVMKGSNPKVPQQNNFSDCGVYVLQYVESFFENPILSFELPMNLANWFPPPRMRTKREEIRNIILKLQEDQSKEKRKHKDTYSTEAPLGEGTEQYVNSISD

[12] = HepG2 cell cytotoxicity, dose response, cytotoxicity control for non-replicating M. tuberculosis project (AID 489018); assay type: functional; conditions: Mycobacterium tuberculosis
[13] = viability of HCT116 lacking mutant beta-catenin – cell-based, human colon tumor, dose response (AID 1045); assay type: functional;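 also: HCT116 colon tumor cells with beta catenin knocked out; cells exposed to compound for 60 hours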
[14] = biological target: T8, Sentrin-specific protease 8 (Homo sapiens, UniProt Q96LD8); assay type: functional;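 also: luminescence read-out of SENP8 inhibition, dose-response confirmation following an ultra-high-throughput screen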
T8 sequence (Q96LD8 whole entry): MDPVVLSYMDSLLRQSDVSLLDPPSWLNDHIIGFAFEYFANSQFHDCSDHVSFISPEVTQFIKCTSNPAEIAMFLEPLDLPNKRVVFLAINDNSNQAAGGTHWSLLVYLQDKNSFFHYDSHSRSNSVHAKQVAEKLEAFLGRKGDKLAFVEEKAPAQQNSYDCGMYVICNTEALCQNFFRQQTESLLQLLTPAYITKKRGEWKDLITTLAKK

[15] = viability of PTEN-deleted HCT116 cells – cell-based, HCT116 PTEN knockout, dose response (AID 1047); assay type: functional;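 also: HCT116 colon tumor cells with PTEN knocked out; cells exposed to compound for 60 hours before readout; potency for loss of cell viability measured by luminescence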
[16] = THP-1 cell cytotoxicity, dose response, cytotoxicity control for non-replicating M. tuberculosis project (AID 489025); assay type: functional
[17] = biological target: Photoreceptor-specific nuclear receptor (Homo sapiens, UniProt Q9Y5X4); assay type: functional, cell-based;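 also: CHO-S cells with Gal4-NCOR and VP16-NR2E3 two-hybrid luciferase reporter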
Photoreceptor-specific nuclear receptor, sequence (Q9Y5X4 whole entry, the tested form may be a part): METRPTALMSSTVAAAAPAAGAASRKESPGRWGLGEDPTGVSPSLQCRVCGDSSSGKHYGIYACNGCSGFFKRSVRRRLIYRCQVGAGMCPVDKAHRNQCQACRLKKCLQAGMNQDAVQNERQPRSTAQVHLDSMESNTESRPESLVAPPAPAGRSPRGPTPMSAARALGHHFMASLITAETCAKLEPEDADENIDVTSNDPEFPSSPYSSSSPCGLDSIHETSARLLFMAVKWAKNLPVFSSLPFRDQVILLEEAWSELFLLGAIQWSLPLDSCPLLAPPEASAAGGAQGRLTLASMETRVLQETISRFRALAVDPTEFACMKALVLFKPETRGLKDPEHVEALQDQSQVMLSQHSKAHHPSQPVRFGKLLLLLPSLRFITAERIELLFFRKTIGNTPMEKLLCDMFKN

T3 sequence (Q9HC97 whole entry): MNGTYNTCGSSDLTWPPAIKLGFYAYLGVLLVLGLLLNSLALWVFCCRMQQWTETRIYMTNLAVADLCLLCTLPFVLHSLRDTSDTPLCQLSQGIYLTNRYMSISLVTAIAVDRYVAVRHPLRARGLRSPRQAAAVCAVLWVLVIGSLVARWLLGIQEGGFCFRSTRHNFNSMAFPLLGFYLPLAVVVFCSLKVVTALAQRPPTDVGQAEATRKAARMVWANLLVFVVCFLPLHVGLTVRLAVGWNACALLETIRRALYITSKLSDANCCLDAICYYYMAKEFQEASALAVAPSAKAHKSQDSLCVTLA
T2 sequence (P34972 whole entry): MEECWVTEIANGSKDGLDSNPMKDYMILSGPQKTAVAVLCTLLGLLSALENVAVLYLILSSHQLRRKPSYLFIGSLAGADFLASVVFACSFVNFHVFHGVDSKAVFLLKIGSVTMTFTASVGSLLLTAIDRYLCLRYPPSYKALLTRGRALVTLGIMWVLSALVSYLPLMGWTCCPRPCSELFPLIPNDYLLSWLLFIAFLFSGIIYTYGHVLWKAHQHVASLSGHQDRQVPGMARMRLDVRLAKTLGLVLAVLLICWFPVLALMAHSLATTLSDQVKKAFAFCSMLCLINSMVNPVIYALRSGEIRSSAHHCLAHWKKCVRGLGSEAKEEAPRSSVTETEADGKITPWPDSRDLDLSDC
T1 sequence (P21554 whole entry): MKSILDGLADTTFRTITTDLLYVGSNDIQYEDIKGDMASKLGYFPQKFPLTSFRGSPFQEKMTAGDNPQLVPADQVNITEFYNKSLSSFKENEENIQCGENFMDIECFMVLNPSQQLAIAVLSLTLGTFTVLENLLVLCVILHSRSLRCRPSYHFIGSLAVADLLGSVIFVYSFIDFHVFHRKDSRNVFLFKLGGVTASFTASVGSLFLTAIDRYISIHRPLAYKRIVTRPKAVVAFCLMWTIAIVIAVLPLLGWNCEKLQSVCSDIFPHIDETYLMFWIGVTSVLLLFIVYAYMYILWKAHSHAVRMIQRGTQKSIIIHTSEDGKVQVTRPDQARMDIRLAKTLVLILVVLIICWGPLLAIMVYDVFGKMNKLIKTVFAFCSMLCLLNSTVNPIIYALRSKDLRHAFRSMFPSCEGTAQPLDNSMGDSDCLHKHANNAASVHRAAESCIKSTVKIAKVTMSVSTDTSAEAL
G-protein coupled receptor 55, sequence (Q9Y2T6 whole entry): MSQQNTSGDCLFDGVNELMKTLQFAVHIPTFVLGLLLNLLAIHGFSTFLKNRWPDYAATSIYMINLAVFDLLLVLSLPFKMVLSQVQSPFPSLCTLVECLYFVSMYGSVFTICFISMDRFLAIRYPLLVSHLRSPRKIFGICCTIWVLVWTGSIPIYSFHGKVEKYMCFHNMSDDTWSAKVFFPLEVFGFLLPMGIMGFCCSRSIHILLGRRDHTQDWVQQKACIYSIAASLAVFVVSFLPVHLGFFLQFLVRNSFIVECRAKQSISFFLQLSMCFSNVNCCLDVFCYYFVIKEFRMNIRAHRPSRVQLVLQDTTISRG
Voltage-dependent T-type calcium channel subunit alpha-1H, sequence (O95180 whole entry): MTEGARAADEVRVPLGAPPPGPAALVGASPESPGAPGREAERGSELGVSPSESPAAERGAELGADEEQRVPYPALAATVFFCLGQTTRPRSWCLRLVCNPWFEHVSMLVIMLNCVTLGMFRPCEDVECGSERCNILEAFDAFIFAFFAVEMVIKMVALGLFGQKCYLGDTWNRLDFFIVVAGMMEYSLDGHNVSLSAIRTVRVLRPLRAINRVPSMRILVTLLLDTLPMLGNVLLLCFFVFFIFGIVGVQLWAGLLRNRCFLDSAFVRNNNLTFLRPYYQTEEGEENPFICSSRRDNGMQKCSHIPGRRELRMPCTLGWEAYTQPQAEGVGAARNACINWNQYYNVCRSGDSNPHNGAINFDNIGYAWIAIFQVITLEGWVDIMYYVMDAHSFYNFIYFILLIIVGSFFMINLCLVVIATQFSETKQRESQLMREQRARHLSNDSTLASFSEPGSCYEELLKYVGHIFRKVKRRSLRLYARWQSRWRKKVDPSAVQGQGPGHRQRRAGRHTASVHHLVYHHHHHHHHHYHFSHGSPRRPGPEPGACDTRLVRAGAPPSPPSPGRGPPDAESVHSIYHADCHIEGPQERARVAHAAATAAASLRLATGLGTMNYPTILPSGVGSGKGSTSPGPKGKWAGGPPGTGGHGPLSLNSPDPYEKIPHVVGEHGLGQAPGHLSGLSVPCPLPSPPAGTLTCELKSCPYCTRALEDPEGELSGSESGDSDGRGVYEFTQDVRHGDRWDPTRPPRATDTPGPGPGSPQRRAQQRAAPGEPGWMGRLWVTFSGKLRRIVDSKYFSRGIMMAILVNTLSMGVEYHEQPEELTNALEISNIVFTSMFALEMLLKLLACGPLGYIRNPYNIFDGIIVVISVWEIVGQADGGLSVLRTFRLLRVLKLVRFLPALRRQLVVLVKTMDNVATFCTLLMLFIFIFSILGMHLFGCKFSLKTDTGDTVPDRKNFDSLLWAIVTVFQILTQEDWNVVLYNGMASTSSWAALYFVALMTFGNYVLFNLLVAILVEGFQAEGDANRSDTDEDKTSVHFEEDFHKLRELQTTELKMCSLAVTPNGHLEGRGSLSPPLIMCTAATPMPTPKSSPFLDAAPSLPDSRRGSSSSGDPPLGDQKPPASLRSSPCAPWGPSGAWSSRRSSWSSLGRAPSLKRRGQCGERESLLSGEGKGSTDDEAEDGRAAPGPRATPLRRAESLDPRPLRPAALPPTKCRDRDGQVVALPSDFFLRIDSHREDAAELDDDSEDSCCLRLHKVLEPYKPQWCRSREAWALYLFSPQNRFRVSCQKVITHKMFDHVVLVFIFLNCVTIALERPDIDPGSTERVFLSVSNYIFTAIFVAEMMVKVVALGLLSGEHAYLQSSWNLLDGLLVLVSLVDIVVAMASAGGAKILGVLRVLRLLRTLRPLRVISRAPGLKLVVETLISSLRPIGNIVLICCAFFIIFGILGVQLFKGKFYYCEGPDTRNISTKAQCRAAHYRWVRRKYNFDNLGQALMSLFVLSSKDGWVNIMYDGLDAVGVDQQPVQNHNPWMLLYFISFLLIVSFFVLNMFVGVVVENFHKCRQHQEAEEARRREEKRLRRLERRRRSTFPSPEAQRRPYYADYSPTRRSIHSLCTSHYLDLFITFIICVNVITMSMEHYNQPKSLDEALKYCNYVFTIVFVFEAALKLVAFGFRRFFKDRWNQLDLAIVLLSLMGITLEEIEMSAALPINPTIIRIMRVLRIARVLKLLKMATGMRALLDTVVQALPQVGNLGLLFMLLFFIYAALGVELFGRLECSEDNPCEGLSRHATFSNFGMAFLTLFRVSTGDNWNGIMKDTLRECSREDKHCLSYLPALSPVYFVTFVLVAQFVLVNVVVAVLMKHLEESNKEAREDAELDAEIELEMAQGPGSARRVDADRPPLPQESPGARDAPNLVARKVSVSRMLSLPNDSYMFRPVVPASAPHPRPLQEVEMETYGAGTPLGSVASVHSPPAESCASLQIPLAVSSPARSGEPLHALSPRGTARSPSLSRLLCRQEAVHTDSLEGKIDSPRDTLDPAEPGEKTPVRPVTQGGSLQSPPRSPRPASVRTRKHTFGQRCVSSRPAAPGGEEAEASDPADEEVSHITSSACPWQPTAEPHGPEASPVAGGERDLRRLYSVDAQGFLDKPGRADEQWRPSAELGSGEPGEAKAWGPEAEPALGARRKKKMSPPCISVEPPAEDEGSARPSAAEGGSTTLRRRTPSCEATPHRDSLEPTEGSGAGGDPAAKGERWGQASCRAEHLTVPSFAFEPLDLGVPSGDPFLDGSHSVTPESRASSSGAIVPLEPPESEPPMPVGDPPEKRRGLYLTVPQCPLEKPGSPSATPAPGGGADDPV

Cc1ccc(-c2nnc(NC(=O)COc3ccc(Cl)cc3)o2)cc1C
active: EC50 [1] 1.4 µM

COc1ccc(S(=O)(=O)N2CCOCC2)cc1NC(=O)c1ccc2c(c1)OCO2
inactive: EC50 (Cannabinoid receptor 1 [2]) > 32 µM | IC50 (Cannabinoid receptor 2 [3]) > 32 µM | IC50 [4] > 32 µM | EC50 [5] > 32 µM | EC50 (Cannabinoid receptor 2 [6]) > 32 µM | EC50 [7] 18 µM | IC50 (Cannabinoid receptor 1 [8]) > 32 µM

COc1ccc(/C=c2/sc3n(c2=O)NC2(c4ccccc4)N(C)C(=O)N(C)C2(c2ccccc2)N=3)cc1 (stereo not given)
inactive: IC50 (Coagulation factor XII) > 50 µM

COc1ccccc1-n1c(=O)oc2ccc(Cl)cc2c1=O
active: IC50 (Caspase-3) 26.9 µM | CC50 [9] > 20 µM | AC50 (INS1) 8.62 µM | IC50 [10] 11.5 µM | IC50 [11] 16.5 µM | CC50 [12] > 20 µM | EC50 [13] 11.9 µM | IC50 [14] 22.6 µM | EC50 [15] 11.7 µM | CC50 [16] 19.8 µM | IC50 [17] 5.1 µM
